Source: the supplement of paper PMC11061612

Experiments:
Assay in all cases: combination Emax (second highest fraction inhibited in the dose matrix, 72 h); higher = more inhibition; extreme values may be limits of the assay
[1] = test system: BHT-101 (Thyroid Gland Carcinoma)
Outline: (§1)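 After 24 hours at 37°C and 5% CO2 in 1536-well plates, cells in DMEM/F12 or RPMI plus 10% FBS received two-drug dose matrices for 72 hours. Viability came from CellTiter-Glo 2.0 luminescence and was scaled as inhibition, anchored at 0 by vehicle wells and at 1 by blank wells. Combination Emax is taken as the second-highest inhibition in the matrix, and Bliss excess as the observed combination effect less EA + EB − EA·EB, with EA and EB the single-agent effects.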

[2] = test system: HT-1080 (Other Solid Carcinomas)
Outline: as §1

[3] = test system: LS-1034 (Colorectal Carcinoma)
Outline: as §1

[4] = test system: MM1S (Plasma Cell Myeloma)
Outline: as §1

[5] = test system: NCI-H1341 (Small Cell Lung Carcinoma)
Outline: as §1

[6] = test system: NCI-H226 (Mesothelioma)
Outline: as §1

[7] = test system: NCI-H3118 (Head and Neck Carcinoma)
Outline: as §1

[8] = test system: NCI-H596 (Other Solid Carcinomas)
Outline: as §1

[9] = test system: SAT (Head and Neck Carcinoma)
Outline: as §1

[10] = test system: SKG-IIIa (Cervical Carcinoma)
Outline: as §1

[11] = test system: SNU-423 (Hepatocellular Carcinoma)
Outline: as §1

[12] = test system: SiHa (Cervical Carcinoma)
Outline: as §1

[13] = test system: TUR (Acute Myeloid Leukemia)
Outline: as §1

[14] = test system: ZR-75-30 (Breast Carcinoma)
Outline: as §1

| SMILES | combination Emax [1] | combination Emax [2] | combination Emax [3] | combination Emax [4] | combination Emax [5] | combination Emax [6] | combination Emax [7] | combination Emax [8] | combination Emax [9] | combination Emax [10] | combination Emax [11] | combination Emax [12] | combination Emax [13] | combination Emax [14] |
| --- | --- | --- | --- | --- | --- | --- | --- | --- | --- | --- | --- | --- | --- | --- |
| CC1(C)CCC(CN2CCN(c3ccc(C(=O)NS(=O)(=O)c4ccc(NCC5CCOCC5)c([N+](=O)[O-])c4)c(Oc4cnc5[nH]ccc5c4)c3)CC2)=C(c2ccc(Cl)cc2)C1 [Venetoclax] + CCN(CCO)CCCOc1ccc2c(Nc3cc(CC(=O)Nc4cccc(F)c4)[nH]n3)ncnc2c1 [AZD2811] (first compound max 1 µM, 7x7, partner max 1 µM) | 0.157 | 0.27 | 0.114 | 0.265 | 0.495 | 0.158 | 0.207 | 0.207 | 0.187 | 0.229 | 0.229 | 0.172 | 0.258 | 0.11 |
| CN(CCO)CC[C@H](CSc1ccccc1)Nc1ccc(S(=O)(=O)NC(=O)c2ccc(N3CCC([C@@H](O)c4ccccc4-c4ccc(Cl)cc4)CC3)cc2)cc1S(=O)(=O)C(F)(F)F [AZD4320] + C=CCn1c(=O)c2cnc(Nc3ccc(N4CCN(C)CC4)cc3)nc2n1-c1cccc(C(C)(C)O)n1 [AZD1775] (first compound max 1 µM, partner max 1 µM) | 0.659 | 0.718 | 0.371 | 1 | 1 | 0.407 | 0.916 | 0.318 | 0.708 | 0.426 | 0.804 | 0.112 | 0.904 | 0.173 |
| Cc1c2c(nn1C)CSCc1cc(n(C)n1)CSc1cc(c3ccccc3c1)OCCCc1c(C(=O)O)n(C)c3c-2c(Cl)ccc13 [AZD5991] + CN(C)CCCOc1ccc(-c2ccc3ncc4c(c3c2)n(C2CCOCC2)c(=O)n4C)cn1 [AZD0156] (first compound max 1 µM, 7x7, partner max 1 µM) | 0.659 | 0.183 | 0.217 | 0.992 | 0.379 | 0.293 | 0.314 | 0.328 | 0.638 | 0.218 | 0.297 | 0.326 | 0.477 | 0.286 |
| Cc1cc2ncnn2cc1Nc1ncc2c(n1)n(C1CCOCC1)c(=O)n2C [AZD7648] + CN(C)CCCOc1ccc(-c2ccc3ncc4c(c3c2)n(C2CCOCC2)c(=O)n4C)cn1 [AZD0156] (first compound max 10 µM, 7x7, partner max 1 µM) | 0.366 | 0.151 | 0.239 | 0.389 | 0.34 | 0.271 | 0.215 | 0.243 | 0.378 | 0.241 | 0.341 | 0.305 | 0.164 | 0.194 |
| Cc1c2c(nn1C)CSCc1cc(n(C)n1)CSc1cc(c3ccccc3c1)OCCCc1c(C(=O)O)n(C)c3c-2c(Cl)ccc13 [AZD5991] + Cc1cc2ncnn2cc1Nc1ncc2c(n1)n(C1CCOCC1)c(=O)n2C [AZD7648] (first compound max 1 µM, 7x7, partner max 10 µM) | 0.599 | 0.179 | 0.272 | 1 | 0.509 | 0.203 | 0.308 | 0.367 | 0.664 | 0.197 | 0.362 | 0.255 | 0.557 | 0.307 |
| CN(CCO)CC[C@H](CSc1ccccc1)Nc1ccc(S(=O)(=O)NC(=O)c2ccc(N3CCC([C@@H](O)c4ccccc4-c4ccc(Cl)cc4)CC3)cc2)cc1S(=O)(=O)C(F)(F)F [AZD4320] + C[C@@H]1COCCN1C2=NC(=NC(=C2)C3(CC3)[S@](=N)(=O)C)C4=C5C=CNC5=NC=C4 [AZD6738] (first compound max 1 µM, 7x7, partner max 10 µM) | 0.877 | 0.656 | 0.721 | 1 | 1 | 0.193 | 0.765 | 0.425 | 0.587 | 0.536 | 0.624 | 0.246 | 0.971 | 0.286 |
| COc1cccc(OCCCN)c1-c1cc(Nc2cnc(C#N)cn2)n[nH]1 [Prexasertib] + Cc1cc2ncnn2cc1Nc1ncc2c(n1)n(C1CCOCC1)c(=O)n2C [AZD7648] (first compound max 1 µM, 7x7, partner max 10 µM) | 0.748 | 0.557 | 0.685 | 0.858 | 0.919 | 0.209 | 0.819 | 0.438 | 0.573 | 0.389 | 0.735 | 0.386 | 1 | 0.17 |
| CN(C)CCCOc1ccc(-c2ccc3ncc4c(c3c2)n(C2CCOCC2)c(=O)n4C)cn1 [AZD0156] + C[C@@H]1COCCN1C2=NC(=NC(=C2)C3(CC3)[S@](=N)(=O)C)C4=C5C=CNC5=NC=C4 [AZD6738] (first compound max 1 µM, 7x7, partner max 10 µM) | 0.627 | 0.507 | 0.615 | 0.698 | 0.849 | 0.0975 | 0.672 | 0.454 | 0.361 | 0.233 | 0.495 | 0.234 | 0.923 | 0.189 |
| CN(CCO)CC[C@H](CSc1ccccc1)Nc1ccc(S(=O)(=O)NC(=O)c2ccc(N3CCC([C@@H](O)c4ccccc4-c4ccc(Cl)cc4)CC3)cc2)cc1S(=O)(=O)C(F)(F)F [AZD4320] + CCN(CCO)CCCOc1ccc2c(Nc3cc(CC(=O)Nc4cccc(F)c4)[nH]n3)ncnc2c1 [AZD2811] (first compound max 1 µM, 7x7, partner max 1 µM) | 0.279 | 0.594 | 0.251 | 1 | 1 | 0.49 | 0.333 | 0.289 | 0.375 | 0.191 | 0.466 | 0.162 | 0.255 | 0.173 |
| Cc1c2c(nn1C)CSCc1cc(n(C)n1)CSc1cc(c3ccccc3c1)OCCCc1c(C(=O)O)n(C)c3c-2c(Cl)ccc13 [AZD5991] + Cn1cnc2c(F)c(Nc3ccc(Br)cc3Cl)c(C(=O)NOCCO)cc21 [Selumetinib] (first compound max 1 µM, 7x7, partner max 3 µM) | 0.913 | 0.428 | 0.587 | 0.998 | 0.496 | 0.224 | 0.481 | 0.241 | 0.803 | 0.24 | 0.27 | 0.305 | 0.629 | 0.281 |
| Cc1c2c(nn1C)CSCc1cc(n(C)n1)CSc1cc(c3ccccc3c1)OCCCc1c(C(=O)O)n(C)c3c-2c(Cl)ccc13 [AZD5991] + C=CCn1c(=O)c2cnc(Nc3ccc(N4CCN(C)CC4)cc3)nc2n1-c1cccc(C(C)(C)O)n1 [AZD1775] (first compound max 1 µM, partner max 1 µM) | 0.732 | 0.402 | 0.481 | 0.992 | 0.832 | 0.269 | 0.9 | 0.289 | 0.829 | 0.377 | 0.591 | 0.314 | 0.965 | 0.364 |
| CCN(CCO)CCCOc1ccc2c(Nc3cc(CC(=O)Nc4cccc(F)c4)[nH]n3)ncnc2c1 [AZD2811] + C=CCn1c(=O)c2cnc(Nc3ccc(N4CCN(C)CC4)cc3)nc2n1-c1cccc(C(C)(C)O)n1 [AZD1775] (first compound max 1 µM, partner max 1 µM) | 0.318 | 0.331 | 0.257 | 0.776 | 0.632 | 0.185 | 0.807 | 0.346 | 0.41 | 0.261 | 0.59 | 0.164 | 0.668 | 0.155 |
| CN(CCO)CC[C@H](CSc1ccccc1)Nc1ccc(S(=O)(=O)NC(=O)c2ccc(N3CCC([C@@H](O)c4ccccc4-c4ccc(Cl)cc4)CC3)cc2)cc1S(=O)(=O)C(F)(F)F [AZD4320] + CN(C)CCCOc1ccc(-c2ccc3ncc4c(c3c2)n(C2CCOCC2)c(=O)n4C)cn1 [AZD0156] (first compound max 1 µM, 7x7, partner max 1 µM) | 0.394 | 0.549 | 0.347 | 0.984 | 0.974 | 0.224 | 0.0719 | 0.289 | 0.193 | 0.109 | 0.515 | 0.108 | 0.118 | 0.169 |
| CN(C)CCCOc1ccc(-c2ccc3ncc4c(c3c2)n(C2CCOCC2)c(=O)n4C)cn1 [AZD0156] + CCN(CCO)CCCOc1ccc2c(Nc3cc(CC(=O)Nc4cccc(F)c4)[nH]n3)ncnc2c1 [AZD2811] (first compound max 1 µM, 7x7, partner max 1 µM) | 0.203 | 0.142 | 0.108 | 0.34 | 0.409 | 0.0682 | 0.0407 | 0.207 | 0.142 | 0.0993 | 0.194 | 0.135 | 0.218 | 0.135 |
| CC1(C)CCC(CN2CCN(c3ccc(C(=O)NS(=O)(=O)c4ccc(NCC5CCOCC5)c([N+](=O)[O-])c4)c(Oc4cnc5[nH]ccc5c4)c3)CC2)=C(c2ccc(Cl)cc2)C1 [Venetoclax] + CN(C)CCCOc1ccc(-c2ccc3ncc4c(c3c2)n(C2CCOCC2)c(=O)n4C)cn1 [AZD0156] (first compound max 1 µM, 7x7, partner max 1 µM) | 0.246 | 0.105 | 0.164 | 0.221 | 0.361 | 0.212 | 0.181 | 0.232 | 0.204 | 0.219 | 0.271 | 0.152 | 0.0455 | 0.105 |
| COc1cc2c(cc1OCCCCCOc1cc3c(cc1OC)C(=O)N1C=C(C)C[C@H]1C=N3)N=C[C@@H]1CC(C)=CN1C2=O [SG3199] + O=C(c1cc(Cc2n[nH]c(=O)c3ccccc23)ccc1F)N1CCN(C(=O)C2CC2)CC1 [Olaparib] (first compound max 0.001 µM, 7x7, partner max 10 µM) | 0.193 | 0.12 | 0.0272 | 0.293 | 0.193 | 0.0668 | 0.118 | 0.202 | 0.17 | 0.144 | 0.146 | 0.0997 | 0.112 | 0.308 |
